In patent US20150105252A1, “SUBSTITUTED PYRAZOLES AS HERBICIDES” (E I DU PONT DE NEMOURS AND COMPANY, priority 2013, published 2015):

Key:
foxtail, giant [1] = test: Test A preemergence; format: in vivo, Setaria faberii; details: preemergence; for Foxtail, Giant plant response rating (0 to 100 scale): 125 g ai/ha, visual injury approx. 10 days after treatment; for Foxtail, Giant plant response rating: 500 g ai/ha, visual injury after approx. 10 days, 0 to 100 scale (0 no effect, 100 complete control)
Summary of the method: (§1)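 Pre- and postemergence greenhouse test; loam+sand; cpd in non-phytotox. solvent/surfactant; post at 1–2 leaf, 2–10 cm; visual score ~10 d, 0 = none, 100 = complete control.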

foxtail, giant [2] = test: Test C postemergence; format: in vivo, Setaria faberii; details: for Plant response rating (scale of 0 to 100 where 0 is no effect and 100 is complete control), Foxtail, Giant: Postemergence, 31 g ai/ha, visually evaluated after 13 to 15 days; for Foxtail, Giant plant response rating / Plant response rating, Foxtail, Giant: postemergence; for Foxtail, Giant plant response rating: 62 g ai/ha, scale 0 to 100
Summary of the method: (§2)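 Seeds were sown in a loam soil–sand blend and sprayed preemergence with compounds formulated in a non-phytotoxic solvent mixture containing surfactant. Postemergence plants, grown in peat/vermiculite medium to 2–18 cm (1- to 4-leaf stage), received the same formulation. After 13 to 15 days in a greenhouse, injury was rated visually against controls (0 = no effect, 100 = complete control).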

blackgrass [3] = test: Test C preemergence; format: in vivo, Alopecurus myosuroides; details: preemergence; for Plant response rating, Blackgrass: 125 g ai/ha, scale 0 to 100, 0 = no effect, 100 = complete control
Summary of the method: as §2

pigweed [4] = test: Test A preemergence; format: in vivo, Amaranthus retroflexus; details: preemergence; for Pigweed plant response rating (0 to 100 scale): 125 g ai/ha, visual injury approx. 10 days after treatment; for Pigweed plant response rating: 500 g ai/ha, visual injury after approx. 10 days, 0 to 100 scale (0 no effect, 100 complete control)
Summary of the method: as §1

wheat = test: Test C postemergence; format: in vivo, Triticum aestivum; details: postemergence; for Plant response rating, Wheat: 250 g ai/ha, scale 0 to 100 (0 no effect, 100 complete control); for Wheat plant response rating: scale 0 to 100
Summary of the method: as §2

corn = test: Test A postemergence; format: in vivo, Zea mays
Summary of the method: as §1

barnyardgrass = test: Test C postemergence; format: in vivo, Echinochloa crus-galli; details: for Plant response rating (scale of 0 to 100 where 0 is no effect and 100 is complete control), Barnyardgrass: Postemergence, 31 g ai/ha, visually evaluated after 13 to 15 days; for Barnyardgrass plant response rating / Plant response rating, Barnyardgrass: postemergence; for Barnyardgrass plant response rating: 62 g ai/ha, scale 0 to 100
Summary of the method: as §2

blackgrass [5] = test: Test C postemergence; format: in vivo, Alopecurus myosuroides; details: for Plant response rating (scale of 0 to 100 where 0 is no effect and 100 is complete control), Blackgrass: Postemergence, 31 g ai/ha, visually evaluated after 13 to 15 days; for Blackgrass plant response rating / Plant response rating, Blackgrass: postemergence; for Blackgrass plant response rating: 62 g ai/ha, scale 0 to 100
Summary of the method: as §2

soybean = test: Test C postemergence; format: in vivo, Glycine max; details: postemergence; for Plant response rating, Soybean: 250 g ai/ha, scale 0 to 100 (0 no effect, 100 complete control); for Soybean plant response rating: 125 g ai/ha, scale 0 to 100, 0 no effect, 100 complete control
Summary of the method: as §2

pigweed [6] = test: Test C preemergence; format: in vivo, Amaranthus retroflexus; details: preemergence; for Plant response rating, Pigweed: 125 g ai/ha, scale 0 to 100, 0 = no effect, 100 = complete control
Summary of the method: as §2

ragweed = test: Test C postemergence; format: in vivo, Ambrosia elation; details: postemergence
Summary of the method: as §2

crabgrass, large = test: Test A postemergence; format: in vivo, Digitaria sanguinalis
Summary of the method: as §1

johnsongrass = test: Test C preemergence; format: in vivo, Sorghum halepense; details: preemergence; for Plant response rating, Johnsongrass: 125 g ai/ha, scale 0 to 100, 0 = no effect, 100 = complete control
Summary of the method: as §2

galium = test: Test C preemergence; format: in vivo, Galium aparine; details: preemergence; for Plant response rating, Galium: 125 g ai/ha, scale 0 to 100, 0 = no effect, 100 = complete control
Summary of the method: as §2

pigweed [7] = test: Test C postemergence; format: in vivo, Amaranthus retroflexus; details: postemergence; for Pigweed plant response rating: 62 g ai/ha, scale 0 to 100
Summary of the method: as §2

[8] = 250 g ai/ha, scale 0 to 100 (0 no effect, 100 complete control)
[9] = 125 g ai/ha, scale 0 to 100, 0 no effect, 100 complete control
[10] = 31 g ai/ha, visual rating, scale 0 to 100 (0 no effect, 100 complete control), 13 to 15 days
[11] = 62 g ai/ha, scale 0 to 100 (0 no effect, 100 complete control), 13 to 15 days
[12] = 250 g ai/ha, scale 0 to 100, 0 is no effect, 100 is complete control
[13] = Postemergence, 500 g ai/ha, 0 to 100 scale (0 no effect, 100 complete control)
[14] = postemergence, 125 g ai/ha, about 10 days, visual rating on 0 to 100 scale (0 no effect, 100 complete control)

CCNC(=O)c1cc(CC)n(Cc2cc(C(F)(F)F)nn2C)n1 [Compound 154]
55: Plant response rating, Johnsongrass (johnsongrass; 13 to 15 days)
15: Plant response rating, Ragweed (ragweed; [9])
75: Blackgrass plant response rating (blackgrass [3]; [10])
85: Soybean plant response rating (soybean) | Pigweed plant response rating (pigweed [6]; [10]) | Johnsongrass plant response rating (johnsongrass; [12]) | Plant response rating, Pigweed (pigweed [7]; [9])
5: Plant response rating (scale of 0 to 100 where 0 is no effect and 100 is complete control), Foxtail, Giant (foxtail, giant [2]) | Foxtail, Giant plant response rating (foxtail, giant [2]) | Plant response rating, Foxtail, Giant (foxtail, giant [2]; [9]) | Wheat plant response rating (wheat) | Plant response rating (scale of 0 to 100 where 0 is no effect and 100 is complete control), Barnyardgrass (barnyardgrass) | Barnyardgrass plant response rating (barnyardgrass) | Plant response rating, Barnyardgrass (barnyardgrass; [9]) | Johnsongrass plant response rating (johnsongrass; [10]) | Johnsongrass plant response rating (johnsongrass; [11])
65: Pigweed plant response rating (pigweed [7])
0: Plant response rating (scale of 0 to 100 where 0 is no effect and 100 is complete control), Blackgrass (blackgrass [5]) | Blackgrass plant response rating (blackgrass [5])
95: Plant response rating, Pigweed (pigweed [7]; [8])
10: Plant response rating, Foxtail, Giant (foxtail, giant [2]; [8]) | Plant response rating, Wheat (wheat) | Plant response rating, Barnyardgrass (barnyardgrass; [8]) | Plant response rating, Blackgrass (blackgrass [5]; [9])
100: Foxtail, Giant plant response rating (0 to 100 scale) (foxtail, giant [1]) | Foxtail, Giant plant response rating (foxtail, giant [1]) | Pigweed plant response rating (0 to 100 scale) (pigweed [4]) | Pigweed plant response rating (pigweed [4]) | Corn plant response rating (corn; [13]) | Plant response rating, Pigweed (pigweed [6]; 13 to 15 days) | Pigweed plant response rating (pigweed [6]; [12]) | Crabgrass, Large plant response rating (crabgrass, large; [13]) | Crabgrass, Large plant response rating (crabgrass, large; [14]) | Galium plant response rating (galium; [11]) | Plant response rating, Galium (galium; 13 to 15 days) | Galium plant response rating (galium; [12])
35: Plant response rating, Ragweed (ragweed; [8])
90: Blackgrass plant response rating (blackgrass [3]; [11]) | Plant response rating, Blackgrass (blackgrass [3]; 13 to 15 days) | Blackgrass plant response rating (blackgrass [3]; [12]) | Plant response rating, Soybean (soybean) | Galium plant response rating (galium; [10])
40: Corn plant response rating (corn; [14]) | Plant response rating, Blackgrass (blackgrass [5]; [8])
98: Pigweed plant response rating (pigweed [6]; [11])

CCCNC(=O)c1cc(CCF)n(Cc2ccnc(C(F)(F)F)c2)n1 [Compound 177]
40: Pigweed plant response rating (pigweed [7])
45: Plant response rating, Foxtail, Giant (foxtail, giant [2]; [8])
98: Johnsongrass plant response rating (johnsongrass; [12])
100: Foxtail, Giant plant response rating (0 to 100 scale) (foxtail, giant [1]) | Foxtail, Giant plant response rating (foxtail, giant [1]) | Pigweed plant response rating (0 to 100 scale) (pigweed [4]) | Pigweed plant response rating (pigweed [4]) | Corn plant response rating (corn; [13]) | Pigweed plant response rating (pigweed [6]; [10]) | Pigweed plant response rating (pigweed [6]; [11]) | Plant response rating, Pigweed (pigweed [6]; 13 to 15 days) | Pigweed plant response rating (pigweed [6]; [12]) | Crabgrass, Large plant response rating (crabgrass, large; [13]) | Crabgrass, Large plant response rating (crabgrass, large; [14]) | Plant response rating, Johnsongrass (johnsongrass; 13 to 15 days) | Galium plant response rating (galium; [10]) | Galium plant response rating (galium; [11]) | Plant response rating, Galium (galium; 13 to 15 days) | Galium plant response rating (galium; [12])
20: Plant response rating, Wheat (wheat) | Plant response rating, Barnyardgrass (barnyardgrass; [8]) | Plant response rating (scale of 0 to 100 where 0 is no effect and 100 is complete control), Blackgrass (blackgrass [5]) | Plant response rating, Blackgrass (blackgrass [5]; [9])
10: Foxtail, Giant plant response rating (foxtail, giant [2]) | Plant response rating, Barnyardgrass (barnyardgrass; [9]) | Johnsongrass plant response rating (johnsongrass; [10])
95: Plant response rating, Soybean (soybean)
15: Wheat plant response rating (wheat) | Blackgrass plant response rating (blackgrass [5])
30: Plant response rating, Foxtail, Giant (foxtail, giant [2]; [9])
90: Plant response rating, Blackgrass (blackgrass [3]; 13 to 15 days) | Blackgrass plant response rating (blackgrass [3]; [12]) | Corn plant response rating (corn; [14]) | Soybean plant response rating (soybean)
5: Plant response rating (scale of 0 to 100 where 0 is no effect and 100 is complete control), Foxtail, Giant (foxtail, giant [2]) | Plant response rating (scale of 0 to 100 where 0 is no effect and 100 is complete control), Barnyardgrass (barnyardgrass) | Barnyardgrass plant response rating (barnyardgrass)
70: Plant response rating, Ragweed (ragweed; [9]) | Johnsongrass plant response rating (johnsongrass; [11])
75: Plant response rating, Ragweed (ragweed; [8]) | Plant response rating, Pigweed (pigweed [7]; [9])
50: Blackgrass plant response rating (blackgrass [3]; [10])
35: Plant response rating, Blackgrass (blackgrass [5]; [8])
85: Blackgrass plant response rating (blackgrass [3]; [11]) | Plant response rating, Pigweed (pigweed [7]; [8])
